Results published in ChEMBL document CHEMBL1150192, “Tetracyclic Triterpenoids of the Fruit Coats of Azadirachta indica” (J Nat Prod, 1991).
Calls of active or inactive are those of the source.

Key:
Format in all cases: functional, organism-based
[1] = test system: Bacillus subtilis; test: Antimicrobial activity against Bacillus subtilis
[2] = test system: Bacillus pumilus; test: Antimicrobial activity against Bacillus pumilus
[3] = test system: Staphylococcus aureus; test: Antimicrobial activity against Staphylococcus aureus
[4] = test system: Staphylococcus epidermidis; test: Antimicrobial activity against Staphylococcus epidermidis
[5] = test system: Serratia marcescens; test: Antimicrobial activity against Serratia marcescens
[6] = test system: Staphylococcus; test: Antimicrobial activity against Staphylococcus citreus
[7] = test system: Streptococcus pyogenes; test: Antimicrobial activity against Streptococcus pyogenes
[8] = test system: Escherichia coli; test: Antimicrobial activity against Escherichia coli
[9] = test system: Shigella dysenteriae; test: Antimicrobial activity against Shigella dysenteriae
[10] = test system: Shigella sonnei; test: Antimicrobial activity against Shigella sonnei
[11] = test system: Salmonella enterica subsp. enterica serovar Typhi str. CT18; test: Antimicrobial activity against Salmonella typhi
[12] = test system: Salmonella paratyphi; test: Antimicrobial activity against Salmonella paratyphi A; conditions: Salmonella enterica subsp. enterica serovar Paratyphi A
[13] = test system: Klebsiella pneumoniae; test: Antimicrobial activity against Klebsiella pneumoniae
[14] = test system: Proteus vulgaris; test: Antimicrobial activity against Proteus vulgaris
[15] = test system: Salmonella; test: Antimicrobial activity against Salmonella schottmuelleri

Measured: Activity

CC(=O)O[C@@H]1C[C@H]2C(C)(C)C(=O)C=C[C@]2(C)[C@H]2CC[C@]3(C)C(=CC[C@H]3[C@@H](CO)C[C@H](O)C(=O)C(C)(C)O)[C@@]21C
inactive: all assays above
